This passage reports IC50 results from PubChem BioAssay AID1645866 (Buhrlage Lab, Dana-Farber Cancer Institute and Novartis …, 2021).

Each structure is given as a SMILES string. The source made the active and inactive calls.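 Rule for the calls: active = in confirmatory dose-response testing, peak deubiquitinase inhibition of 30% or more; inactive = the rest.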

The target of this assay is Ubiquitin carboxyl-terminal hydrolase 28 (Homo sapiens) (UniProt Q96RU2). Description: Concentration-response biochemical assay confirming initial hits as inhibitors of ubiquitin-specific protease 28 (AID 1645866). Conditions: purified USP28, ubiquitin-rhodamine fluorescence, 30 min.
Sequence of Ubiquitin carboxyl-terminal hydrolase 28 (Homo sapiens) (Q96RU2 whole entry, looked up): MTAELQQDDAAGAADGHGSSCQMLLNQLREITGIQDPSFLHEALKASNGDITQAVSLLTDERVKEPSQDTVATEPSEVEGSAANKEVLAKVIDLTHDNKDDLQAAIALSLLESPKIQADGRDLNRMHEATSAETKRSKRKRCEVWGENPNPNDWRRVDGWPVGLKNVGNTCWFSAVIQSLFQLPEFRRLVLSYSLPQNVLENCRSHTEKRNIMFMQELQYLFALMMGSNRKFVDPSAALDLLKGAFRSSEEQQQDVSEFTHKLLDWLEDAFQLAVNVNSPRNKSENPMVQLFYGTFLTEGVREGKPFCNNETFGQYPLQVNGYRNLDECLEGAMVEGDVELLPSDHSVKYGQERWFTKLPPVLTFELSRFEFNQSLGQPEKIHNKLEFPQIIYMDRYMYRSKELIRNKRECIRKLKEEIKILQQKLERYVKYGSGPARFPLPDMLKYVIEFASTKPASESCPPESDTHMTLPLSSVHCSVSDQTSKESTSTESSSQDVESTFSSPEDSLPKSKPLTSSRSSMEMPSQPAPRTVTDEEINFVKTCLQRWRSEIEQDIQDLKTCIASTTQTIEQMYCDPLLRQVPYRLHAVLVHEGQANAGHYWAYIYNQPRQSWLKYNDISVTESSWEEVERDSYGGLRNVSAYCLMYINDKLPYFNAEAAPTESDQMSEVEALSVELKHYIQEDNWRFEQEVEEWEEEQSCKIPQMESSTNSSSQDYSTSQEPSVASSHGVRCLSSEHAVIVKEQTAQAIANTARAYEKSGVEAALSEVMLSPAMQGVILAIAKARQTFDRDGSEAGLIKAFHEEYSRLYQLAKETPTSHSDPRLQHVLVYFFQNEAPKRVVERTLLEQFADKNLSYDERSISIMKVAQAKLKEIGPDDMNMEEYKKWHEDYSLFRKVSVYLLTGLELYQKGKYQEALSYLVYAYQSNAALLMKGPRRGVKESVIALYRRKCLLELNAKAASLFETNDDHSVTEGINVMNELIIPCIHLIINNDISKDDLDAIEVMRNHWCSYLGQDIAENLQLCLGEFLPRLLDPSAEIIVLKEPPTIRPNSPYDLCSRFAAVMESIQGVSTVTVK

For orientation: IC50 means the concentration that gives 50% inhibition. Turning to `COc1cc2c(cc1OC)-c1cc(Nc3ccc(Br)cc3)nc(=O)n1CC2`, the half-inhibitory concentration (IC50) is 1.84 µM.

Take `CCS(=O)(=O)N1CCc2cc(C(=O)Nc3ccc4c(c3)OCCO4)ccc21`: the IC50 was 0.364 µM. Regarding `CNc1nc2c(c(=O)n1C)CN(C(=O)Nc1cccc3ccccc13)CC2`, the IC50 was > 50 µM (inactive). On to `Cc1ccc(Nc2nc(Nc3cccc(F)c3)nc3nccnc23)c(C)c1`, for which the IC50 was > 50 µM (inactive).

As to `CC(C)NS(=O)(=O)c1ccc(CCC(=O)Nc2ccc3c(c2)OCCO3)cc1`, the concentration for half-maximal inhibition (IC50) was 1.13 µM. As for `O=C(Cn1c(=O)n(Cc2ccccc2)c(=O)c2ncccc21)NCc1ccccc1Cl`, the figure is 25.9 µM. As for `Fc1cccc(-n2cc(-c3noc(-c4ccc[nH]4)n3)nn2)c1`, the figure is 27.5 µM; as for `CCn1ccc2c(cc(C(=O)Nc3cc(F)ccc3F)n2C)c1=O`, 2.22 µM. `O=C(/C=C/c1ccco1)c1cccc([N+](=O)[O-])c1`: the concentration for half-maximal inhibition (IC50) is 21.9 µM.

Take `CC(C)(C)c1cc(C[C@@H]2C[C@H](NC(=O)N3CCOCC3)C2(C)C)no1`: the IC50 is > 50 µM (inactive). Regarding `Cc1nc2cc(NC(=O)C3CN(C(=O)c4cnccn4)C3)ccc2s1`, the IC50 is 9.44 µM. As for `COc1cccc(CC(=O)Nc2cc(F)c3nc(N4CCOCC4)ccc3c2)c1`, the figure is > 50 µM (inactive).

Take `CC(=O)Nc1cc(-c2cccc(O)c2)cn2c(-c3cnn(C)c3)cnc12`: the half-maximal inhibitory concentration (IC50) is 5.99 µM.

`CCn1ccc2c(cc(C(=O)Nc3ccccc3F)n2C)c1=O`: the IC50 is 15.2 µM. Consider `Cc1c(-c2nn3c(-c4ccco4)nnc3s2)cccc1[N+](=O)[O-]`, for which the half-maximal inhibitory concentration (IC50) is 2.49 µM. As for `Cc1ccc(C2c3cccn3CCN2C(=O)Nc2ccccc2)cc1` (configuration not stated), the figure is > 50 µM (inactive).

`O=C(Nc1ccccc1)C1CCCN(C(=O)c2cc3ccccc3[nH]2)C1` (configuration not stated): the 50% inhibitory concentration (IC50) was 39.1 µM. In the case of `CC1(C(=O)NCc2ccccc2)Cn2c(cc3ccccc32)C(=O)N1Cc1ccccc1` (configuration not stated), the 50% inhibitory concentration (IC50) was 48.7 µM. As for `Cc1nc(-c2noc3ccc(C(=O)Nc4cccnc4)cc23)cs1`, the figure is 15.7 µM; as for `N#Cc1c(SCCO)nc(N2CCCC2)c2c1CCCC2`, 6.47 µM. As for `COCCNC(=O)c1cc(-c2cn(-c3ccccn3)c(C)n2)n2ccccc12`, the figure is > 50 µM (inactive). The result for `CC1CC[C@@]2(NC1)O[C@H]1C[C@H]3[C@@H]4CC=C5C[C@@H](O)CC[C@]5(C)[C@H]4CC[C@]3(C)[C@H]1[C@@H]2C` (some centres not stated) reads 34.3 µM; that for `COc1ccc(CCNC(=O)c2cc3ccccc3s2)cc1OC`, 2.07 µM. Regarding `Cc1cccc(O)c1-c1nc2c(-c3nc4c(C(=O)O)cccc4o3)cccc2o1`, the IC50 was > 50 µM (inactive). The result for `CCCCN1CC(C(=O)Nc2ccc(C(=O)Nc3ccc(F)c(Cl)c3)cc2)CC1=O` (configuration not stated) reads 34.2 µM; that for `Cc1nn(-c2ccccc2)c(C)c1C(=O)OCC(=O)Nc1cccc(Br)c1`, 2.72 µM; that for `O=C(NCc1cccnc1)c1cnn2c(C(F)(F)F)cc(-c3ccc(F)cc3)nc12`, 47.4 µM.

On to `O=C(Nc1ccc(F)c(Cl)c1)c1ccc(N2CCCCS2(=O)=O)cc1Cl`, for which the IC50 is 30.5 µM. `Cn1c(=O)c2cc(C(=O)Nc3ccc(F)cc3)cnc2n(C)c1=O`: the half-inhibitory concentration (IC50) is 20.8 µM. Regarding `O=C(COC(=O)c1cc(Cl)c2c(c1)OCO2)Nc1ccc2[nH]c(=O)[nH]c2c1`, the half-inhibitory concentration (IC50) was 2.92 µM.

`CCOC(=O)c1sc2c(c1C)c(=O)n(Cc1ccccc1)c(=O)n2CC(N)=O`: the half-maximal inhibitory concentration (IC50) was 22.2 µM.

Consider `CC1=C2C(=NCCN1)C(=O)N(c1ccccc1)C2c1cccnc1` (configuration not stated), for which the IC50 is > 50 µM (inactive). In the case of `O=S(=O)(O)c1cc2cc3ccccc3cc2[nH]1`, the IC50 was > 50 µM (inactive). The result for `COc1cccc(CNC(=O)C2=Cc3cccc(OC)c3OC2)c1` reads 8.65 µM; that for `CC(C)NC(=O)CN1C(=O)CC(C)Sc2ccc(S(=O)(=O)N3CCCCC3)cc21` (configuration not stated), 41.6 µM; that for `Cn1c(CCNC(=O)c2[nH]nc3c2CCc2ccccc2-3)nc2ccccc21`, 23.7 µM. As for `O=C(COC(=O)c1ccc(CN2CCCC2=O)cc1)c1ccc2c(c1)OCCO2`, the IC50 was 0.113 µM. As for `O=C(Nc1cccc(-c2nc3ccccc3[nH]2)c1)c1cc2ccccc2oc1=O`, the figure is 2.17 µM; as for `O=C1C[C@@H](O)[C@H](O)[C@@]23O[C@@]12C1(Oc2cccc4cccc(c24)O1)[C@@H]1O[C@@H]1[C@@H]3O`, 24.3 µM. As for `Cc1ccc(-c2nc(-c3cccs3)cc(C(F)(F)F)c2C#N)cc1`, the IC50 is > 50 µM (inactive). As to `COc1ccc(CCn2cnc3c4ccccc4n(C)c3c2=O)cc1OC`, the 50% inhibitory concentration (IC50) was 8.44 µM. Turning to `Fc1ccc(Cn2ccc(-c3cnc(-c4ccccc4)s3)n2)cc1`, the half-inhibitory concentration (IC50) was 27.4 µM. Consider `CCN(CC)c1cc(C)c2cc(NC(=O)c3ccncc3)ccc2n1`, for which the IC50 was 5.88 µM.

In the case of `COc1cccc(C(=O)Oc2ccc3c(=O)c(-c4ccc(OC)c(OC)c4)coc3c2)c1`, the half-maximal inhibitory concentration (IC50) is 0.14 µM.

On to `CC(=O)c1ccc(NC(=O)c2ccc(N3CCCCS3(=O)=O)cc2Cl)cc1`, for which the concentration for half-maximal inhibition (IC50) is 26.6 µM. Regarding `CC(=O)NCc1nc(-c2ccc3c(c2)nc(C)c(=O)n3C2CCCC2)no1`, the IC50 is > 50 µM (inactive).

As for `CN(C)c1ccc(CCN2CCc3nc4cccnc4cc3C2)cc1`, the IC50 is > 50 µM (inactive). For `O=C(OC1CSc2nc3ccccc3n2C1)c1ccc([N+](=O)[O-])o1` (configuration not stated), the half-maximal inhibitory concentration (IC50) was 33.2 µM. On to `COc1ccccc1N1CCN(C(=O)c2ccc3c(c2)N(Cc2cc(C)ccc2C)C(=O)c2ccccc2S3=O)CC1` (configuration not stated), for which the half-maximal inhibitory concentration (IC50) was 29.7 µM. The result for `Cc1ccc2cc3c(nc2n1)CCN(Cc1ccc(F)cc1)C3` reads > 50 µM (inactive). As for `Cc1cccc(CNC(=O)C2CCCN(S(=O)(=O)Cc3ccc(F)cc3)C2)c1` (configuration not stated), the half-maximal inhibitory concentration (IC50) was 26.6 µM. As for `CCc1cc2c(=O)[nH]c(Cc3ccc(OC)cc3)nc2s1`, the figure is 19.7 µM.

In the case of `CCn1cc2c(n1)c(=O)n(Cc1ccccc1)c(=O)n2CC(=O)Nc1ccc(OC)cc1`, the 50% inhibitory concentration (IC50) is 10.5 µM. Regarding `Cc1cccc(NC(=O)CSc2ccc(-n3cnc(-c4ccccc4)c3)nn2)c1`, the IC50 was 16.5 µM. As for `O=C(COc1ccc(S(=O)(=O)N2CCOCC2)cc1)N1CCC(Cc2ccccc2)CC1`, the IC50 is 12.2 µM. Regarding `O=C(Cc1cccc2ccccc12)Nc1nc2ccc(F)cc2s1`, the half-maximal inhibitory concentration (IC50) is 36.9 µM. Regarding `CC1(C)Cc2c(c(-c3ccco3)nc3sc4c(SCCCc5ccccc5)ncnc4c23)CO1`, the half-maximal inhibitory concentration (IC50) was 34.9 µM.

Consider `Cc1cccc(COc2ccc(C3SCC(=O)Nc4n[nH]c(C)c43)cc2)c1` (configuration not stated), for which the concentration for half-maximal inhibition (IC50) is 5.31 µM. Regarding `COC(=O)c1ccc(NC(=O)CSc2nnc(-c3ccc(O)cc3)n2Cc2ccco2)cc1`, the half-maximal inhibitory concentration (IC50) is 33.9 µM. On to `COc1ccc(Cl)cc1N1C(=O)[C@H]2[C@@H](C1=O)[C@]1(C(=O)Nc3c(C)cc(C)cc31)N1CCC[C@@H]21`, for which the IC50 was > 50 µM (inactive). As for `COc1cccc(C(=O)Nc2ccc(-n3cnnn3)cc2)c1`, the figure is 21.7 µM. Regarding `Cc1ccc(S(=O)(=O)Nc2ccccc2SCCS(=O)(=O)c2ccc(Cl)cc2)cc1`, the IC50 was > 50 µM (inactive). For the molecule `COc1ccc(S(=O)(=O)N2CCC3(CC2)OC(=O)Nc2ccccc23)cc1`, the 50% inhibitory concentration (IC50) was 43.4 µM. The result for `Cc1ccc(-c2nc(-c3ccccc3)c(S(=O)(=O)CC(=O)Nc3ccc(C)c(C)c3)[nH]2)cc1` reads 42.3 µM. As for `Cc1ccc(NC(=O)c2sc(=S)n(CCc3ccccc3)c2N)cc1`, the figure is 9.8 µM; as for `O=C(Nc1ccccc1-c1nc2ccccc2[nH]1)c1sc2ccccc2c1Cl`, 2.04 µM; as for `O=C(CSc1nc2ccccc2n1S(=O)(=O)c1ccc(Br)cc1)Nc1ccc([N+](=O)[O-])cc1Cl`, 8.65 µM.

With `O=C(CNc1ccc(F)c(Cl)c1)Nc1ccc2c(c1)OCCO2`, the 50% inhibitory concentration (IC50) is 15.6 µM. Regarding `CC(C)c1nc2sc3c(N(CCO)CCO)ncnc3c2c2c1COC(C)(C)C2`, the IC50 was > 50 µM (inactive). As for `COc1ccc(/C=C/c2ccnc3nc(-n4cccc4)nn23)cc1`, the figure is > 50 µM (inactive); as for `O=C(NCc1ccccc1)c1ccc(-c2ccc(N3CCCC3)nn2)cc1`, > 50 µM (inactive). As for `O=C(NCc1ccc2c(c1)OCO2)c1ccc(C2SCC(=O)N2Cc2ccco2)cc1` (configuration not stated), the figure is > 50 µM (inactive); as for `CCOc1ccc(S(=O)(=O)Nc2ccc[nH]c2=O)cc1`, > 50 µM (inactive); as for `CCS(=O)(=O)c1ccccc1C(=O)Nc1ccc2sc(C)nc2c1`, 17.2 µM. On to `COc1ccc(CCNC(=O)COc2ncnc3oc(C)c(C)c23)cc1OC`, for which the IC50 is > 50 µM (inactive). As for `COc1ccc(NC(=O)c2nnc(C(=O)NCCN3CCCCCC3)s2)cc1`, the figure is 12.2 µM; as for `COc1ccc(COc2ccc3c(C)c(CC(=O)N4CC[C@@]5(O)CCCC[C@H]5C4)c(=O)oc3c2)cc1`, 2.27 µM. The result for `COc1ccc(NS(=O)(=O)c2cc(NC(=O)CCc3nc4ccccc4s3)ccc2C)cc1` reads 24.1 µM. In the case of `Cc1ccn(-c2ccc(NC(=O)c3ccccc3Sc3ccccc3C#N)cc2)n1`, the IC50 was 36.1 µM. As for `CO[C@H]1/C=C/OC2(C)Oc3c(C)c(O)c4c(c3C2=O)C2(C=C(NC(=O)/C(C)=C\C=C\[C@H](C)[C@H](O)[C@@H](C)[C@@H](O)[C@@H](C)[C@H](OC(C)=O)C1C)C4=O)OCC(=O)O2` (some centres not stated), the figure is > 50 µM (inactive). `CSc1nc(Cc2ccc(Cl)cc2)nc2ccccc12`: the IC50 was 14 µM. Take `CC1=C[C@@H](C)CC[C@H]2O[C@@H](C3=C(O)C(=O)C(C)=C4O[C@](O)(C=C43)[C@@H](C)C[C@H](C)C1)[C@H](C)[C@@H](O)[C@H]2C`: the IC50 is 19.5 µM. As for `COc1ccc(CCNC(=O)CCCn2c(SCC(=O)NCc3ccco3)nc3ccccc3c2=O)cc1OC`, the figure is 35.7 µM; as for `C[C@H](NC(=O)Cc1ccccc1F)c1nc2cc(-c3ccccc3F)ncn2n1`, > 50 µM (inactive).

Consider `Cc1ccc(C)c(-n2c(C)cc(/C=C3/C(=N)N4C(c5ccc(F)cc5)=CSC4=NC3=O)c2C)c1`, for which the IC50 was > 50 µM (inactive).

As to `Cc1cccc(NC(=O)CN2C(=O)COc3cc(S(=O)(=O)N4CCCC4)ccc32)c1C`, the half-inhibitory concentration (IC50) was 21 µM.

Take `COc1ccc(CCNC(=O)CCn2c(=O)c3ccccc3n(Cc3ccc(C)cc3)c2=O)cc1OC`: the IC50 is 22 µM.
